Results from patent publication US20260306460A1, “COMPOSITION FOR REMOVING AND INHIBITING SENESCENT CELLS, AND USES THEREOF” (LIFECEUTIX CO., LTD., priority 2023, published 2026).
Entries after “also recorded” stand apart in the source; their conditions may differ.

What was measured:
senescent human cells = test: Viability of doxorubicin-induced senescent human cells (CellTiter-Glo), Example 11; format: cell-based; details: excessive concentrations (1 or 20 mM)
Experimental: Cells in which senescence was induced by treatment with doxorubicin were treated with the test compound at designated concentrations and measured using the CellTiter-Glo Luminescent Cell Viability Assay (Promega).
(§1) After 3 days, cell viability was measured using CellTiter-Glo Luminescent Cell Viability Assay (Promega) or light microscopy.

senescent foreskin cells = test: Survival of senescent human cells treated with supernatant (secreted fluid) from death-induced cells, Example 13; format: cell-based; details: for Survival: Table 8, supernatant from dying senescent cells treated at 30, 90 or 270 μM (as Example 11), senescent treated cells
Experimental: as §1
During this additional culture, by checking with an optical microscope, etc., the medium supernatants containing secreted fluid from normally proliferating and senescent cells in which cell death was induced were obtained. The obtained medium supernatant was replaced with the medium of normally proliferating and senescent cells, respectively, and cell survival rate was measured after 3 days.

[1] = system: HMGN1 secreted from senescent A549 cells; test: HMGN1 secretion (ELISA) from senescent A549 cancer cells, Example 12; format: cell-based, human; details: senescent untreated = 100%; 30 μM; 90 μM for LX-305, 905, 1302, 1601, 1603, 2003, 2702, 2901, 3106; 270 μM for LX-1103, 2005, 2007;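 also: A549 cells made senescent by doxorubicin exposure, with DMSO-treated cells serving as the non-senescent control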
Experimental: Cells were treated with doxorubicin or control (DMSO) and cultured.

[2] = system: carbon tetrachloride-induced liver fibrosis mice; test: Carbon tetrachloride-induced liver fibrosis mice, Example 31, Table 57; format: in vivo, mouse; details: CCl4-induced liver fibrosis mice, untreated = 100%
In short: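 Mice with induced hepatic fibrosis received either the test compound or, as controls, an equal volume of vehicle solution alone. Once dosing ended, liver tissue was harvested and total RNA was isolated. cDNA was synthesized from this RNA, and quantitative RT-PCR was run on it to measure hepatic mRNA levels of the fibrosis- and senescence-related genes.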

[3] = system: bleomycin-induced pulmonary fibrosis mice; test: Bleomycin-induced pulmonary fibrosis mice, Example 31, Table 56; format: in vivo, mouse; details: untreated = 100%
In short: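 After treatment with test compound or vehicle alone, lungs of bleomycin-induced pulmonary fibrosis mice were harvested. Total RNA extracted and gene expression quantified by qRT-PCR.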

naturally aged mice = test: Anti-aging evaluation in naturally aged mice, Example 31, Table 55; format: in vivo, mouse; details: for Femur Ctsk mRNA / Kidney Agtr1a mRNA / Liver IL6 mRNA / Liver MMP3 mRNA / Liver p16 mRNA / Open Field Test Time in Center: untreated = 100%; for Heart Sur2a mRNA / Joint Col2a1 mRNA / Skin Col1a1 mRNA / Skin SDF1 mRNA: untreated = 1.0; for Muscle Mass: untreated 0.64 g; for Fat Mass: untreated 0.82 g; for Cataract incidence: untreated 83%;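 as to all read-outs here: Vehicle-dosed control mice received solution alone at matching volume, values compare test-compound-treated aged mice against that control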
Experimental: After the end of drug administration, the method described in each example below was performed. […] The mRNA amounts of p16, MMP3, and IL6 after natural aging was induced were calculated as 100% and compared with the mRNA amounts of p16, MMP3, and IL6 after treatment with the test compound. In addition, an open field test for the analysis of aging-related frailty, agtr1a mRNA analysis for kidney damage and disease evaluation, col1a1 and SDF1 mRNA analysis for skin aging evaluation such as wrinkles/loss of elasticity/hyperpigmentation, col2a1 mRNA analysis for evaluating joint aging such as osteoarthritis, sur2a mRNA analysis for evaluating cardiac aging such as decreased cardiac load resistance, ctsk mRNA analysis for evaluating bone diseases due to aging such as osteoporosis, muscle tissue weight for analyzing sarcopenia, fat tissue weight for analyzing lipoatrophy, and cataract incidence analysis were performed in mice. For cataract incidence analysis, the drug was administered twice a week under the conditions specified above, and biweekly examinations were conducted until death.

[4] = system: naturally aged C57BL6J mice; format: in vivo, mouse; details: mouse, in vivo
senescent A549 cells = test: Viability of senescent A549 cells (CellTiter-Glo), Example 18, Table 15; details: Homo sapiens, A549, read-out: Survival (%)
Experimental: Senescence-induced cancer cells treated with doxorubicin were treated with the test compound at designated concentrations, and cell viability was measured using the CellTiter-Glo Luminescent Cell Viability Assay (Promega).

senescent cells = test: Viability of senescent cells (CellTiter-Glo), Example 17, Table 13; details: Homo sapiens, read-out: Survival (%)
Experimental: Cells induced to undergo senescence by doxorubicin treatment were treated with test compound at designated concentrations and measured using the CellTiter-Glo Luminescent Cell Viability Assay (Promega).

Row | Structure (SMILES) | Survival (senescent foreskin cells) | HMGN1 [1] [%] | Liver p16 mRNA [2] | Col1a1 mRNA [2] | Lung p16 mRNA [3] | Col1a1 mRNA [3] | Femur Ctsk mRNA (naturally aged mice) [%] | Heart Sur2a mRNA (naturally aged mice) [fold] | Joint Col2a1 mRNA (naturally aged mice) [fold] | Kidney Agtr1a mRNA (naturally aged mice) [%] | Liver IL6 mRNA (naturally aged mice) [%] | Liver MMP3 mRNA (naturally aged mice) [%] | Liver p16 mRNA (naturally aged mice) [%] | Open Field Test Time in Center (naturally aged mice) [%] | Skin Col1a1 mRNA (naturally aged mice) [Fold] | Skin SDF1 mRNA (naturally aged mice) [fold] | Muscle Mass (naturally aged mice) [g] | Fat Mass (naturally aged mice) [g] | Cataract incidence (naturally aged mice) [%] | wound/damage healing improvement [4] | also measured
1 | OO [H2O2] | – | – | – | – | – | – | – | – | – | – | – | – | – | – | – | – | – | – | – | – | removal of senescent cells (senescent human cells): hardly removed
2 | O=c1c2ccccc2[se]n1CCn1[se]c2ccccc2c1=O [LX-112, 1,2-[bis(1,2-benzisoselenazolone-3 (2H)-ketone)]ethane] | – | – | – | – | – | – | – | – | – | – | – | – | – | – | – | – | – | – | – | – | death of senescent cells by medium supernatant (senescent foreskin cells; supernatants from proliferating and senescent death-induced cells): selectively induced the death of senescent cells; also recorded: same results
3 | CCn1c(C#CCNc2ccccc2)cc2cc(CNC)ccc21 [LX-905] | 46.5 | 217 | 76 (±6.0) % | 71 (±7.5) % | 67 (±5.5) % | 59 (±13.3) % | 62 | 2.4 | 2.3 | 52 | 38 | 76 | 67 | 241 | 2.0 | 1.5 | 0.69 | 1.08 | 65 | – | –
4 | NCC(=O)CCC(=O)O [LX-1103, 5-Aminolevulinic acid] | 101.8 | 158 | 77 (±3.5) % | 60 (±6.9) % | 73 (±3.2) % | 76 (±5.3) % | 78 | 2.4 | 2.8 | 76 | 70 | 68 | 47 | 183 | 2.3 | 1.7 | 0.68 | 0.89 | 54 | – | –
5 | O=C(O)c1cc(/N=N/c2ccc(S(=O)(=O)Nc3ccccn3)cc2)ccc1O [LX-1302, Sulfasalazine] | 98.5 | 147 | 52 (±4.4) % | 48 (±3.2) % | 41 (±1.5) % | 59 (±2.6) % | 75 | 2.3 | 2.5 | 62 | 48 | 47 | 55 | 201 | 2.4 | 1.8 | 0.70 | 0.92 | 73 | – | –
6 | Cc1oncc1C(=O)Nc1ccc(C(F)(F)F)cc1 [LX-1603, Leflunomide] | 97.5 | 163 | 67 (±3.5) % | 54 (±2.9) % | 78 (±6.1) % | 48 (±2.5) % | 64 | 2.0 | 2.3 | 77 | 61 | 73 | 74 | – | 2.6 | 1.7 | 0.69 | 0.92 | 78 | – | –
7 | CO[C@]1(C(=O)N[C@@H](C)c2ccc(-n3cc(F)cn3)nc2)CC[C@H](c2nc(C)cc(Nc3cc(C)[nH]n3)n2)CC1 [LX-1902, Pralsetinib] | 53.4 | 271 | 77 (±9.6) % | 68 (±5.7) % | 72 (±8.8) % | 64 (±8.2) % | 81 | 1.5 | 1.5 | 71 | 79 | 81 | 72 | 157 | 1.2 | 1.6 | 0.68 | 0.95 | 76 | – | –
8 | COc1cc(OC)cc(N(CCNC(C)C)c2ccc3ncc(-c4cnn(C)c4)nc3c2)c1 [LX-1903, Erdafitinib] | 62.8 | – | 67 (±9.2) % | 62 (±6.9) % | 73 (±6.6) % | 70 (±9.3) % | 77 | 1.4 | 1.7 | – | 58 | 75 | 69 | 161 | 1.2 | 1.4 | 0.69 | 0.97 | 79 | – | –
9 | C[C@@H]1C(=O)C(C#N)=C[C@]2(C)C3=CC(=O)[C@@H]4[C@@H]5CC(C)(C)CC[C@]5(c5nnc(CF)o5)CC[C@@]4(C)[C@]3(C)CC[C@@H]12 [LX-2507] | – | – | – | – | – | – | – | – | – | – | – | – | – | – | – | – | – | – | – | damage treatment and recovery | –
10 | CC1(C)CC[C@]2(c3nc(CO)no3)CC[C@]3(C)[C@H](C(=O)C=C4[C@@]5(C)C=C(C#N)C(=O)C(C)(C)[C@@H]5CC[C@]43C)[C@@H]2C1 [LX-2508] | – | – | – | – | – | – | – | – | – | – | – | – | – | – | – | – | – | – | – | damage treatment and recovery | –
11 | C=CC(=O)NC[C@]12CCC(C)(C)C[C@H]1[C@H]1C(=O)C=C3[C@@]4(C)C=C(C#N)C(=O)C(C)(C)[C@@H]4CC[C@@]3(C)[C@]1(C)CC2 [LX-2509] | – | – | – | – | – | – | – | – | – | – | – | – | – | – | – | – | – | – | – | damage treatment and recovery | –
12 | CCC(=O)NC[C@]12CCC(C)(C)C[C@H]1[C@H]1C(=O)C=C3[C@@]4(C)C=C(C#N)C(=O)C(C)(C)[C@@H]4CC[C@@]3(C)[C@]1(C)CC2 [LX-2510] | – | – | – | – | – | – | – | – | – | – | – | – | – | – | – | – | – | – | – | damage treatment and recovery | –
13 | C[C@@H]1[C@H]2[C@H]3C(=O)C=C4[C@@]5(C)C=C(C#N)C(=O)C(C)(C)[C@@H]5CC[C@@]4(C)[C@]3(C)CC[C@@]2(c2nc(CCO)no2)CC[C@H]1C [LX-2511] | – | – | – | – | – | – | – | – | – | – | – | – | – | – | – | – | – | – | – | damage treatment and recovery | –
14 | C[C@@H]1[C@H]2[C@H]3C(=O)C=C4[C@@]5(C)C=C(C#N)C(=O)C(C)(C)[C@@H]5CC[C@@]4(C)[C@]3(C)CC[C@@]2(CO)CC[C@H]1C [LX-2512] | – | – | – | – | – | – | – | – | – | – | – | – | – | – | – | – | – | – | – | damage treatment and recovery | –
15 | COC(=O)[C@@]1(C)CC[C@]2(C)CC[C@]3(C)[C@H](C(=O)C=C4[C@@]5(C)C=C(C#N)C(=O)C(C)(C)C5CC[C@]43C)[C@@H]2C1 (stereo partly drawn) [LX-2513, Soloxolone methyl] | – | – | – | – | – | – | – | – | – | – | – | – | – | – | – | – | – | – | – | damage treatment and recovery | –
16 | CC1(C)C(=O)C(C#N)=C[C@]2(C)C3=CC(=O)[C@@H]4[C@@H]5C[C@@](C)(C(=O)NCCc6c[nH]c7ccccc67)CC[C@]5(C)CC[C@@]4(C)[C@]3(C)CCC12 (stereo partly drawn) [LX-2517, Soloxolone tryptamide] | – | – | – | – | – | – | – | – | – | – | – | – | – | – | – | – | – | – | – | damage treatment and recovery | –
17 | CC/C=C\C/C=C\C/C=C\C/C=C\C/C=C\C/C=C\CCC(=O)O [LX-2702, Docosahexaenoic acid] | 68.6 | 237 | 46 (±3.2) % | 53 (±6.1) % | 53 (±2.8) % | 43 (±5.9) % | 50 | 2.3 | 2.8 | 57 | 54 | 73 | 80 | 211 | 1.8 | 2.7 | 0.72 | 1.13 | 66 | – | –
18 | C=C(C)[C@@H]1CC[C@]2(C)CC[C@]3(C)[C@H](CC[C@@H]4[C@@]5(C)CC[C@H](O)C(C)(C)[C@@H]5CC[C@]43C)[C@@H]12 [LX-5433, Lupeol] | – | – | – | – | – | – | – | – | – | – | – | – | – | – | – | – | – | – | – | damage treatment and recovery | viability at 1.1 µM (senescent A549 cells): 97.8%; viability at 10 µM (senescent A549 cells): 76.5%; viability at 30 µM (senescent A549 cells): 64.7%; viability at 90 µM (senescent A549 cells): 19.3%; viability at 1.1 µM (senescent cells): 108%; viability at 10 µM (senescent cells): 71.1%; viability at 30 µM (senescent cells): 51.8%; viability at 90 µM (senescent cells): 2.4%
19 | CC(=O)N[C@@H](CS)C(=O)O [NAC, N-acetyl cysteine] | – | – | – | – | – | – | – | – | – | – | – | – | – | – | – | – | – | – | – | – | removal of senescent cells (senescent human cells): hardly removed
